Measured values: article PMC7961763, “Semi-Synthesis of Harringtonolide Derivatives and Their Antiproliferative Activity” (Molecules, 2021)
Read-outs that look alike come from different tables or passages of the source.

Key:
[1] = tested on: Huh-7 (human hepatoma cancer cell line); experiment: MTT assay, cytotoxicity against Huh-7; format: cell-based; conditions: read-out: IC50 Huh-7
Protocol: (§1) All the synthesized derivatives of HO were tested for their antiproliferative activity against four human cancer cell lines, including the HCT-116, A375, A-549, and Huh-7 cell lines, using the MTT assay. Cisplatin was used as a positive control, while lead compound HO (1) was also included in the study for comparison.
(§2) HCT-116 (Human colon cancer cell line), A375 (human melanoma cancer cell line), A-549 (human lung adenocarcinoma cell line), Huh-7 (human hepatoma cancer cell line), and L-02 (normal hepatic cell line) were purchased from the Cell Bank of Shanghai Institute of Biochemistry and Cell Biology, Chinese Academy of Sciences (Shanghai, China). The cells were cultured in Dulbecco’s modified Eagle medium (DMEM; NY, USA), which were all supplemented with 10% fetal bovine serum (FBS; NY, USA) at 37 °C with 5% CO2.
(§3) The cytotoxic activity was evaluated using the MTT assay. Briefly, cells were seeded in 96-well plates at a density of 5 × 10^3 cells/well in 100 μL of DMEM medium at 37 °C for 24 h. Stock solutions of test compounds were prepared in DMSO at concentration of 50 mM, and twofold serial dilution with a culture medium was performed to obtain appropriate concentrations right before the assay. After that, the cells were incubated with synthetic derivatives or cisplatin as a positive control at the various concentrations (0.78125-50 μM) for 48 h. Then, 20 μL of 3-(4,5-Dimethylthiazol-2-yl)-2,5-diphenyltetrazolium bromide (MTT, Aladdin, Shanghai, China) solution (5 mg/mL in PBS) was added, and then the cells were incubated at 37 °C for an additional 4 h. The supernatant was removed, and 150 μL of dimethyl sulfoxide was added to dissolve the MTT formazan. The optical density (OD) was measured on a microplate reader (SpectraMax Plus 384, Molecular Devices, Sunnyvale, CA, USA) at a wavelength of 570 nm. The cytotoxic activity was expressed as the IC50 values. The above tests were repeated three times in parallel. Vehicle DMSO (0.1%) was used as a negative control.

[2] = tested on: human normal hepatic L-02 cells; experiment: MTT assay, cytotoxicity on normal L-02 cells; format: cell-based; conditions: for IC50: Homo sapiens, read-out: IC50 L-02; for SI (selectivity index): IC50 (L-02)/IC50 (Huh-7)
Protocol: The selectivity index is crucial for drug development, because it could mediate side effects, including tissues toxicity. Therefore, according to cytotoxic activity results, compounds 6 and 10 with potent cytotoxicity in Huh-7 cells were selected to investigate the selectivity between normal and cancer cells. These two compounds were tested on human normal hepatic L-02 cells with HO as control.
as §2, §3

[3] = tested on: A375 (human melanoma cancer cell line); experiment: MTT assay, cytotoxicity against A375; format: cell-based; conditions: read-out: IC50 A375
Protocol: as §1, §2, §3

[4] = tested on: HCT-116 (human colon cancer cell line); experiment: MTT assay, cytotoxicity against HCT-116; format: cell-based; conditions: read-out: IC50 HCT-116
Protocol: as §1, §2, §3

[5] = tested on: A-549 (human lung adenocarcinoma cell line); experiment: MTT assay, cytotoxicity against A549; format: cell-based; conditions: read-out: IC50 A549
Protocol: as §1, §2, §3

[6] = parameters: method as in PMID 18523925, PMID 29182349, PMID 31184894; conditions: compared with HO; cited from earlier work
[7] = L02, MTT, 48 h, normal hepatic L-02 cells

**Q.** With `Cc1cc(=O)cc2c3c1C1OC4C5OC(=O)C(C=C2)(C4C)C3C15` [Compound 6, (3R,4aR,10aS,11S)-5,11-dimethyl-2a,3,4a,10a1-tetrahydro-1H-2,4-dioxa-3,10a methanocyclohepta[bc]cyclopenta[jk]acenaphthylene-1,7(2a1H)-dione] as the compound, how does the IC50 ([1]; Homo sapiens, Huh-7, 48 h, MTT, 48 h, Huh-7 cells) read?
**A.** 1.19 ± 0.08 µM

**Q.** What about the IC50 [2, 7] of the same compound?
**A.** 67.2 ± 0.43 µM

**Q.** And the “SI (selectivity index)” value [2]?
**A.** 56.5

**Q.** And the “selectivity index relative to HO” value ([2]; SI between Huh-7 and L-02, compared with HO)?
**A.** 20 times

**Q.** What about the IC50 ([3]; Homo sapiens, A-375, 48 h, MTT, 48 h, A375 cells) of the same compound?
**A.** 4.85 ± 0.42 µM

**Q.** And the IC50 ([4]; Homo sapiens, HCT-116, 48 h, MTT, 48 h, HCT-116 cells)?
**A.** 0.86 ± 0.05 µM

**Q.** What about the IC50 ([5]; Homo sapiens, A549, 48 h, MTT, 48 h, A549 cells) of the same compound?
**A.** 5.47 ± 0.13 µM

**Q.** What does the source list for `Cc1cc(=O)cc2c3c1C1OC4C5OC(=O)C(CC2O)(C4C)C3C15` [Compound 10, (3R,4aR,9S,10aS,11S)-9-hydroxy-5,11-dimethyl-2a,3,4a,9,10,10a1-hexahydro-1H-2,4-dioxa-3,10a-methanocyclohepta[bc]cyclopenta[jk]acenaphthylene-1,7(2a1H)-dione]?
**A.** IC50 ([1]; MTT, 48 h, Huh-7 cells): 6.34 ± 0.32 µM; IC50 [2, 7]: 22.3 ± 1.11 µM; SI (selectivity index) [2]: 3.5; IC50 ([3]; MTT, 48 h, A375 cells): 5.79 ± 1.26 µM; IC50 ([4]; MTT, 48 h, HCT-116 cells): 2.29 ± 0.27 µM; IC50 ([5]; MTT, 48 h, A549 cells): 8.25 ± 0.2 µM

**Q.** With `Cc1cc(=O)cc2c3c1[C@@H]1O[C@H]4[C@@H]5OC(=O)[C@](CC2)([C@@H]4C)[C@H]3[C@@H]51` [HO (1), Harringtonolide] as the compound, how does the IC50 ([1]; Homo sapiens, Huh-7, 48 h) read?
**A.** 1.25 ± 0.08 µM

**Q.** What about the IC50 ([2]; L02, 48 h) of the same compound?
**A.** 3.46 ± 0.36 µM

**Q.** And the “SI (selectivity index)” value [2]?
**A.** 2.8

**Q.** And the IC50 ([3]; Homo sapiens, A-375, 48 h)?
**A.** 1.34 ± 0.23 µM

**Q.** And the IC50 ([4]; Homo sapiens, HCT-116, 48 h)?
**A.** 0.61 ± 0.03 µM

**Q.** And the IC50 ([5]; Homo sapiens, A549, 48 h)?
**A.** 1.67 ± 0.23 µM

**Q.** For `CC1=C[C@@H](O)[C@H](O)[C@@]2(O)CCC34C(=O)OC5C6C3C2=C1[C@@H]6O[C@@H]5C4C` (some centres unmarked) [fortalpinoid K], which “cytotoxic activities (result in words)” value [6] is on record?
**A.** losing of cytotoxic activities
